Results reported in ChEMBL document CHEMBL5724562, “Toxicity screen in isolated B cell assay results for EUbOPEN Chemogenomics Library” (2024).
Non-standard residues stand in square brackets, D forms with d. Residues, ends and D or L forms follow the SMILES beside them. *: point of attachment. dPhe(4-NHCONH2) = NC(=O)Nc1ccc(C[C@@H](N)C(=O)O)cc1; Dihydroorotyl(S) = O=C1C[C@@H](C(=O)*)NC(=O)N1; dPhe(4-Cl) = N[C@H](Cc1ccc(Cl)cc1)C(=O)O; Phe(4-NH2) = Nc1ccc(C[C@H](N)C(=O)O)cc1; d2Nal = N[C@H](Cc1ccc2ccccc2c1)C(=O)O; Lys(iPr) = CC(C)NCCCC[C@H](N)C(=O)O; d3Pal = N[C@H](Cc1cccnc1)C(=O)O

Test system: B cell
Assay: Cytotoxicity screening of chemical probes in isolated B cell assay. Data is normalized to DMSO control, the cell viability average of replicates are reported. Reduction of ATP level more than 20% indicate compromised cell health status.
Conditions: human

| SMILES | Cell Viability (1 µM) [%] | Cell Viability (0.1 µM) [%] |
| --- | --- | --- |
| Cl.Clc1ccc2nsnc2c1NC1=NCCN1 [TIZANIDINE HYDROCHLORIDE] | 103.384 | – |
| O=C(/C=C/N1C[C@H]2C[C@@H]1CN2c1ccccn1)c1ccccc1O | 91.7355 | – |
| Cn1nc(C(F)(F)F)cc1-c1cnc(N2CCc3cc(S(=O)(=O)Nc4c(F)cc(Cl)cc4F)cc(N4CCCC4=O)c32)nc1 [TP-020] | 96.7008 | – |
| Cc1cc2c(-c3ccco3)cnc(N[C@@H]3CCN(C)C[C@H]3C(=O)NC3CCCCC3)c2[nH]c1=O [GSK789] | 93.8199 | – |
| COc1cc(OC)cc(-c2noc(N3CCN(C)C4(CCN(c5ccnc(C)c5)CC4)C3)n2)c1 | 97.1072 | – |
| CN1CCN(c2ccc(-c3cccc(CN4CCOCC4)c3)cc2NC(=O)c2c[nH]c(=O)cc2C(F)(F)F)CC1 | 99.6552 | – |
| O=c1nc(-c2ccccn2)sc2ccccc12 [BTZO-1] | 96.3183 | – |
| O=S(=O)(NC1CCC(c2cc(F)ccc2F)(S(=O)(=O)c2ccc(Cl)cc2)CC1)C(F)(F)F (stereo not drawn) [MRK-560] | – | 103.093 |
| O=C(Nc1cccnn1)N1CCC(=Cc2cccc(Oc3ccc(C(F)(F)F)cn3)c2)CC1 | 98.4854 | – |
| CN1CCN(c2cnc3c(C4CCN(C(=O)c5ccc(OC(F)(F)F)cc5N)CC4)ncnc3c2)CC1 [BAY-885] | 96.4414 | – |
| CCCOc1ccn2c(C(C)=O)cc(-c3ccccc3S(C)(=O)=O)c2c1 | 98.3118 | – |
| Nc1ncnc2c1ccn2[C@@H]1O[C@H]([C@H](O)c2ccccc2)[C@@H](O)[C@H]1O | 101.429 | – |
| O=C(N1CCS(=O)(=O)CC1)N1C[C@H](c2ccc(OC(F)(F)F)cc2)C[C@H](c2nc(C3CC3)no2)C1 [BAY-386] | 95.9614 | – |
| CCC(=O)N[C@H]1CC[C@@H](C(=O)N(C)c2ccc(-c3nc4ccccc4o3)cc2)C1 [BI 99179] | 102.234 | – |
| Cc1sc2c(c1C)C(c1ccc(Cl)cc1)=N[C@@H](CC(=O)OC(C)(C)C)c1nnc(C)n1-2 | 83.2653 | – |
| Cl.O=C(O)c1cc(-c2ccc(C3CCNCC3)cc2)c2ccc(-c3ccc(C(F)(F)F)cc3)cc2c1 | 98.0873 | – |
| O=C(c1ccc(C(=O)N2CCC(N3CCCC3)CC2)c(Nc2ccccc2)c1)N1CCC(N2CCCC2)CC1 | 93.0388 | – |
| COCc1nc2cnc3cc(-c4c(C)noc4C)c(OC[C@H]4CCNC4)cc3c2n1[C@H](C)c1ccccc1 [GSK778] | 95.4048 | – |
| CCCCC(=O)N(Cc1ccc(-c2ccccc2-c2nnn[nH]2)cc1)[C@H](C(=O)O)C(C)C | 103.145 | – |
| CCN(CCO)CCCOc1ccc2c(Nc3cc(CC(=O)Nc4cccc(F)c4)[nH]n3)ncnc2c1 [DEFOSBARASERTIB] | 100.387 | – |
| Cc1ccccc1Oc1cc(-n2c(=O)cc(C(F)(F)F)[nH]c2=O)c2ccccc2c1Cl [BAY-069] | 101.552 | – |
| CC(=O)N[C@H](Cc1ccc2ccccc2c1)C(=O)N[C@H](Cc1ccc(Cl)cc1)C(=O)N[C@H](Cc1cccnc1)C(=O)N[C@@H](CO)C(=O)N[C@@H](Cc1ccc(NC(=O)[C@@H]2CC(=O)NC(=O)N2)cc1)C(=O)N[C@H](Cc1ccc(NC(N)=O)cc1)C(=O)N[C@@H](CC(C)C)C(=O)N[C@@H](CCCCNC(C)C)C(=O)N1CCC[C@H]1C(=O)N[C@H](C)C(N)=O [DEGARELIX] (Ac-[d2Nal][dPhe(4-Cl)][d3Pal]S[Phe(4-NH2)](Dihydroorotyl(S))[dPhe(4-NHCONH2)]L[Lys(iPr)]P[dA]-NH2) | 102.434 | – |
| CCN(CC)S(=O)(=O)Nc1cccc(-c2ccc3c(NC(=O)C4CC4)n[nH]c3c2)c1 | 95.3727 | – |
